This note sets out measurements from patent publication US20120142634A1, “Method of Treating Cancer with a Combination of a Proteasome Inhibitor and Salubrinal” (MOUNT SINAI SCHOOL OF MEDICINE OF NEW YORK UNIVERSITY, priority 2008, published 2012).

Holding throughout (type): cell-based
The test system of test [1] is K-562 chronic myeloid leukemia cells. The test is described as follows: Bortezomib-induced killing, with or without Salubrinal.
Test [2] deals with Raji Burkitt's lymphoma cells. The description is as above.
Another test has as its system HEp3 HNSCC cells. Described as above.
Test [3] relates to diffuse B-cell lymphoma U937 cells. The description is as above. Conditions: 4 nM Bortezomib.
Test [4] relates to RPMI8226 cells. Briefly: Cell cycle analysis by propidium iodide staining and flow cytometry. Conditions: for cell death (sub-G0 population): MG-132 400 nM or Bortezomib 4 nM, 24-48 hours. Here is the method:
(§1) Reagents, antibodies, RT-PCR, cell lines and tissue culture, plasmids. Proteasome inhibitor (MG-132, Velcade®; each commercially available) treatments were performed using 400 nM MG-132 or 4 nM Bortezomib (Velcade®) for 24 hours. The drug was then removed by serial washes with PBS and the remaining viable cells were replated. Salubrinal treatments were performed using the drug at 5 or 10 μg/ml, as indicated, for 24 hours. RPMI8226 cells contain a c-MYC insertion on t(16;22)(q32;q11):der16; U266B1 cells (t(11;14)) were from ATCC. Cells were cultured according to ATCC recommendations. Antibodies (identified by the antigen specifically recognized): p-Rb, Rb, p-eIF2α, eIF2α, GCN2, p-GCN2, p-PKR and PKR from Cell Signaling (Beverly, Mass.), p-PERK and PERK from Santa Cruz Biotechnology (Santa Cruz, Calif.), BiP from BD (San Jose, Calif.), GAPDH from Calbiochem (Beverly, Mass.), and β-tubulin from Abcam (Cambridge, Mass.). Total RNA was extracted using Trizol (Invitrogen, Carlsbad, Calif.). Primer sequences were published previously (Sequeira, et al., PLoS ONE 2(7):e615 2007, incorporated herein by reference in its entirety). The pCLBabe-eIF2αS51D plasmid was provided by Dr. David Schubert (Salk Institute, La Jolla, Calif.) and can be constructed using known techniques. Transfection of RPMI8226 cells was performed using Amaxa technology according to the manufacturer's instructions (Gaithersburg, Md.).
Cell cycle analysis, label retention assay. Cell cycle analysis was performed using propidium iodide (PI)/RNAse staining buffer from BD according to the manufacturer's instruction. For label retention and viability quantification, cells were treated with proteasome inhibitors or DMSO for 24 hours, then stained with 50 nM CFDA/SE (Molecular Probes, Eugene, Oreg.) for 15 minutes and replated. Prior to analysis, cells were stained using Hoechst-33342 (10 μg/ml) for 15 minutes at 4° C. to determine cell viability. Cells were then fixed using 3% paraformaldehyde for 20 minutes and analyzed by flow cytometry (LSR-II from BD).

For a further test, the system named is eIF2α. Briefly: Western blot for eIF2α phosphorylation in RPMI8226 cells. Conditions: for eIF2α phosphorylation: single agent, acute phase (Salubrinal 8 hours; MG-132 8-24 hours). As to the method:
as §1, with “Salubrinal treatments were performed using the drug at 5 or 10 μg/ml, as indicated, for 24 hours.” left out
(§2) Viability assay, Immunoblotting. Cell viability was assessed using trypan blue. Immunoblotting was performed using convention techniques, as described previously Aguirre-Ghiso, et al., Cancer Res. 63(7):1684-1695 2003, incorporated herein by reference in its entirety.
(§3) Image quantification and statistical analysis. Image quantification was performed using ImageJ from NIH. Statistical analyses were performed using Prism 4.0 from GraphPad Software (La Jolla, Calif.) and the Student's t-test.

For test [5], the system named is RPMI8226 cells. The test is described as follows: Viability assay (trypan blue). As to the method:
as §1, with “Salubrinal treatments were performed using the drug at 5 or 10 μg/ml, as indicated, for 24 hours.” left out
as §2

A further test deals with CHOP mRNA. The test is described as follows: RT-PCR for CHOP mRNA in RPMI8226 cells. Conditions: acute combination of Salubrinal and Bortezomib (4 nM, 8 hours). As to the method:
as §1, with “Proteasome inhibitor (MG-132, Velcade®; each commercially available) treatments were performed using 400 nM MG-132 or 4 nM Bortezomib (Velcade®) for 24 hours.” left out, “Salubrinal treatments were performed using the drug at 5 or 10 μg/ml, as indicated, for 24 hours.” left out
as §3

In a further test the test system is U937 cells. The test is described as follows: Bortezomib-induced killing, with or without Salubrinal.
A further test relates to U266B1 cells. Briefly: Viability assay (trypan blue). Conditions: Salubrinal combined with MG-132 or Bortezomib, 24 hours. Here is the method: as §1, with “Transfection of RPMI8226 cells was performed using Amaxa technology according to the manufacturer's instructions (Gaithersburg, Md.).” left out
Viability assay, Immunoblotting. Cell viability was assessed using trypan blue. […]

[6] abbreviates: Bortezomib combined with Salubrinal.

Entries after “also recorded” stand apart in the source; their conditions may differ. Where a SMILES comes first, the peptide text is derived from it. The star is where a group is joined. Cbz = O=C(OCc1ccccc1)*

In the case of `CC(C)C[C@H](NC(=O)[C@H](Cc1ccccc1)NC(=O)c1cnccn1)B(O)O` [Bortezomib], the figures for the “sensitivity to Bortezomib” value in [1] (4 nM Bortezomib) and in test [3] were “intermediately sensitive” and “highly sensitive”, respectively. Further, the induction of killing result (in test [2] (Bortezomib alone); in the test on HEp3 HNSCC cells (Bortezomib alone)) was “neither Bortezomib alone nor its combination with Salubrinal was effective” each time. The “cell death (sub-G0 population)” value in the test with RPMI8226 cells [4] was “strongly induced cell death”.
On to `CC(C)C[C@@H](C=O)NC(=O)[C@H](CC(C)C)NC(=O)[C@H](CC(C)C)NC(=O)OCc1ccccc1` [MG-132] (Cbz-Leu-Leu-Leu-aldehyde), for which the eIF2α phosphorylation entry with eIF2α is on record as “increased eIF2α-phosphorylation”. Besides, in the test on RPMI8226 cells [5] (RPMI8226, 400 nM MG-132 for 24 hours, then washed), the “absolute number of viable cells after drug washout and replating” value was “remained constant for 7 days”. Further, the “number of cells in G0-G1 in cells surviving proteasome inhibition” value in the test on RPMI8226 cells [4] (MG-132 400 nM or Bortezomib 4 nM for 24 hours, then washout, control about 35%) was 55-65%. Moreover, the “cell death (sub-G0 population)” value in the test with RPMI8226 cells [4] is “strongly induced cell death”.
For the compound `O=C(/C=C/c1ccccc1)NC(NC(=S)Nc1cccc2cccnc12)C(Cl)(Cl)Cl` (centres unmarked) [Salubrinal], the “enhancement of Bortezomib-induced killing by Salubrinal” value (in test [1]; in the test on U937 cells) was “neither of these cell lines was susceptible” each time. In addition, the induction of killing entry (in test [2] (setting [6]); in the test with HEp3 HNSCC cells (setting [6])) was “neither Bortezomib alone nor its combination with Salubrinal was effective” each time. In addition, the “CHOP mRNA” value in the test with CHOP mRNA is recorded as “strong induction”. The p-eIF2α levels entry with eIF2α (Salubrinal combined with proteasome inhibitor, 8 hours) is listed as “highest levels of p-eIF2α”. In addition, the eIF2α phosphorylation entry in the test on eIF2α is “increased phosphorylation of eIF2α”. In the test with RPMI8226 cells [5] (RPMI8226, 5 μM Salubrinal alone), the “basal viability or growth” value is recorded as “no significant induction of cell death; also recorded: no effect”. The cell death in the test on RPMI8226 cells [5] (RPMI8226, Salubrinal combined with MG-132 or Bortezomib, 24 hours) is 70-90%; in the test on U266B1 cells it was 70-90%. In the test on RPMI8226 cells [5] (arrested cells surviving proteasome inhibition, 5 μM Salubrinal, 24 hours), the “reduction in the number of viable cells” value is given as “approximately 10 fold”.
